Patent US12630585B2, “Antibacterial tryglysin agents” (The Trustees of Princeton University, priority 2020, dated 2026)
Where no end group is shown, it is not given here.

How the values were obtained:
S. mutans [1] = assay: Morphological changes (cell chaining) by microscopy after tryglysin treatment; format: cell-based, Streptococcus mutans; settings: 100 nM
Procedure: FIG. 4 is a graph showing the quantification of chains greater than three cells in length for S. mutans exposed to 100 nM tryglysin A for 2 h, 5 h, or 7 h. A minimum of 100 cells were observed per condition and time point. −, no tryglysin A; +, 100 nM tryglysin A. **, P<0.01; ns, not significant by one-way ANOVA with Dunnet's multiple comparison posttest.
The impact of tryglysins on gross morphological changes to cell shape was examined at 2, 5, and 7 h after treatment with 100 nM tryglysin A or B by microscopy.
Prestored glycerol stocks of S. mutans strains at −80° C. were inoculated into THY broth and incubated overnight at 37° C. in an atmosphere of 5% CO2. CDM was prepared and prewarmed at 37° C. in an atmosphere of 5% CO2 overnight. The next morning, strains were transferred to sterile 15-ml conical tubes and centrifuged at room temperature at 4,000×g for 10 min. Strains were resuspended in 1 ml prewarmed CDM, transferred to microcentrifuge tubes, and centrifuged again at room temperature at 14,000×g for 5 min. Supernatant was discarded, and strains were resuspended in 1 ml fresh prewarmed CDM. Resuspended strains were then inoculated into 6 ml prewarmed CDM at 1:200 dilution. At each time point, strains were monitored by measuring OD600 with a GENESYS 30 Vis spectrophotometer (Thermo-Fisher)
If required, at 1 h postinoculation, 100 nM tryglysin A or B was added to the media. For microscopic analysis of samples, 2 ml of live cells was taken at 2 h, 5 h, and 7 h after the addition of tryglysins and examined using an Olympus CKX53 inverted microscope with a 40× LCACHN-iPC infinity objective (LCACHN40XIPC; numerical aperture, 0.55) connected to a SC50 camera (Olympus). Images were processed using Olympus Stream Image Analysis software (Olympus).

S. agalactiae A909 = assay: Culture growth upon treatment with 100 nM antibiotic; format: cell-based, Streptococcus agalactiae; set-up: key to Inhibition By (S. agalactiae A909): “−” indicates not inhibited; “+” indicates mildly inhibited; “++” indicates inhibited
Procedure: (§1) Other streptococcal species have similar dose-dependent growth inhibitory responses to tryglysins. WGK peptides inhibit growth of several streptococcal species, but not E. faecalis or L. lactis. We extended the evaluation of tryglysin inhibitory activity to other bacterial species. Culture growth rates of several Gram-positive species were evaluated upon treatment with 100 nM each antibiotic. Most susceptible to treatments, with complete growth inhibition at only 100 nM tryglysins, were strains of S. mitis, S. oralis, and S. pneumoniae, each being members of the mitis group. […] Unaffected were cultures of S. pyogenes, Lactococcus lactis, and Enterococcus faecalis (FIG. S4A to F).
(§2) It can also be seen that the disclosed peptides inhibit growth of several streptococcal species, but not others outside of streptococcal species, such as E. faecalis or L. lactis.
(§3) Specifically, bacterial strains were grown from prestored glycerol stocks at −80° C. and inoculated into THY broth. Strains were incubated overnight at 37° C. in an atmosphere of 5% CO2, and the next morning, they were washed and resuspended in fresh, prewarmed CDM as described above in Example 4.

E. faecalis V583 = assay: as above; format: cell-based, Enterococcus faecalis; set-up: key: “−” indicates not inhibited; “+” indicates mildly inhibited; “++” indicates inhibited
Procedure: as §1, §2, §3

L. lactis ATCC 11454 = assay: as above; format: cell-based, Lactococcus lactis; set-up: key: “−” indicates not inhibited; “+” indicates mildly inhibited; “++” indicates inhibited
Procedure: as §1, §2, §3

S. bovis JB1 = assay: as above; format: cell-based, Streptococcus bovis; set-up: key to Inhibition By (S. bovis JB1): “−” indicates not inhibited; “+” indicates mildly inhibited; “++” indicates inhibited
Procedure: as §1, §2, §3

S. mitis CCUG 31611 = assay: as above; format: cell-based, Streptococcus mitis; set-up: key: “−” indicates not inhibited; “+” indicates mildly inhibited; “++” indicates inhibited
Procedure: as §1, §2, §3

S. sanguinis ATCC 10556 = assay: as above; format: cell-based, Streptococcus sanguinis; set-up: key to Inhibition By (S. sanguinis ATCC 10556): “−” indicates not inhibited; “+” indicates mildly inhibited; “++” indicates inhibited
Procedure: as §1, §2, §3

S. oralis 108 = assay: as above; format: cell-based, Streptococcus oralis; set-up: key: “−” indicates not inhibited; “+” indicates mildly inhibited; “++” indicates inhibited
Procedure: as §1, §2, §3

S. pneumoniae D39 = assay: as above; format: cell-based, Streptococcus pneumoniae; set-up: key: “−” indicates not inhibited; “+” indicates mildly inhibited; “++” indicates inhibited
Procedure: as §1, §2, §3

S. mutans [2] = assay: Dose-dependent growth inhibition of cultures with tryglysin titrations over 9 hours; format: cell-based, Streptococcus mutans
Procedure: (§4) Growth inhibition of S. mutans and S. ferus cultures was tested with titrations of both tryglysin A and B over a period of 9 hours.
Referring to FIG. 3A, the dose-dependent growth inhibition of S. mutans by Triglysin A can be seen. Cultures exposed to no tryglysin A 301, 10 nM tryglysin A 302, 100 nM tryglysin A 303, and 1 μM tryglysin A 304 can be seen.
Referring to FIG. 3C, the dose-dependent growth inhibition of S. mutans by Triglysin B can be seen. Cultures exposed to no tryglysin B 321, 10 nM tryglysin B 322, 100 nM tryglysin B 323, and 1 μM tryglysin B 324 can be seen.

S. ferus DSM 20646 = assay: Culture growth upon treatment with 100 nM antibiotic; format: cell-based, Streptococcus ferus; set-up: key: “−” indicates not inhibited; “+” indicates mildly inhibited; “++” indicates inhibited
Procedure: as §1, §2, §3

S. mutans UA159 = assay: as above; format: cell-based, Streptococcus mutans; set-up: key: “−” indicates not inhibited; “+” indicates mildly inhibited; “++” indicates inhibited
Procedure: as §1, §2, §3

S. ferus = assay: Dose-dependent growth inhibition of cultures with tryglysin titrations over 9 hours; format: cell-based, Streptococcus ferus; settings: 9-h growth assay
Procedure: as §4
Referring to FIG. 3B, the dose-dependent growth inhibition of S. ferus by Triglysin A can be seen. Cultures exposed to no tryglysin A 311, 10 nM tryglysin A 312, and 100 nM tryglysin A 313 can be seen.
Referring to FIG. 3D, the dose-dependent growth inhibition of S. ferus by Triglysin B can be seen. Cultures exposed to no tryglysin B 331, 10 nM tryglysin B 332, and 100 nM tryglysin B 333 can be seen.

S. pyogenes NZ131 = assay: Culture growth upon treatment with 100 nM antibiotic; format: cell-based, Streptococcus pyogenes; set-up: key: “−” indicates not inhibited; “+” indicates mildly inhibited; “++” indicates inhibited
Procedure: as §1, §2, §3

S. gordonii Challis Bt = assay: as above; format: cell-based, Streptococcus gordonii; set-up: key: “−” indicates not inhibited; “+” indicates mildly inhibited; “++” indicates inhibited
Procedure: as §1, §2, §3

[3] = to a lower degree than for S. agalactiae

| Substance | chaining of S. mutans cells (chains greater than three cells in length) (S. mutans [1]; 5 h after addition) | chaining of S. mutans cells (chains greater than three cells in length) (S. mutans [1]; 7 h after addition) | Inhibition By (S. agalactiae A909) (S. agalactiae A909) | Inhibition By (E. faecalis V583) (E. faecalis V583) | Inhibition By (L. lactis ATCC 11454) (L. lactis ATCC 11454) | Inhibition By (S. bovis JB1) (S. bovis JB1) | Inhibition By (S. mitis CCUG 31611) (S. mitis CCUG 31611) | Inhibition By (S. sanguinis ATCC 10556) (S. sanguinis ATCC 10556) | Inhibition By (S. oralis 108) (S. oralis 108) | Inhibition By (S. pneumoniae D39) (S. pneumoniae D39) | growth inhibition of S. mutans (S. mutans [2]; 10 nM, 9-h growth assay) | Inhibition By (S. ferus DSM 20646) (S. ferus DSM 20646) | Inhibition By (S. mutans UA159) (S. mutans UA159) | growth inhibition of S. ferus (S. ferus; 10 nM) | growth inhibition of S. ferus (S. ferus; 100 nM) | Inhibition By (S. pyogenes NZ131) (S. pyogenes NZ131) | Inhibition By (S. gordonii Challis Bt) (S. gordonii Challis Bt) | also measured |
| --- | --- | --- | --- | --- | --- | --- | --- | --- | --- | --- | --- | --- | --- | --- | --- | --- | --- | --- |
| Tryglysin A (VNSWGKH; bridge (positions not given here); also: macrocyclic, tetrahydro[5,6]benzindole modification, places not given here) | significantly increased | significantly increased | ++ | − | − | + | ++ | ++ | ++ | ++ | Significant growth inhibition | ++ | ++ | Significant growth inhibition | complete inhibition | − | + | inhibitory activity against S. agalactiae compared with variant B (S. agalactiae A909): greater inhibitory activity; inhibitory activity against S. bovis compared with variant B (S. bovis JB1; [3]): greater inhibitory activity; inhibitory activity against S. sanguinis compared with variant B (S. sanguinis ATCC 10556; [3]): greater inhibitory activity; growth inhibition of S. mutans (S. mutans [2]; 100 nM, 9-h growth assay): further inhibition; growth inhibition of S. mutans (S. mutans [2]; 1 μM, 9-h growth assay): further inhibition |
| Tryglysin B (VNCWGKH; bridge (positions not given here); also: macrocyclic, tetrahydro[5,6]benzindole modification, places not given here; listed as Streptococcus ferus) | appeared to do the same | appeared to do the same | + | − | − | + | ++ | ++ | ++ | ++ | some inhibition | ++ | ++ | minimal inhibition | compete inhibition | − | + | concentration required for significant growth inhibition of S. mutans (S. mutans [2]; 9-h growth assay): at least 100 nM; concentration required for S. mutans to be completely inhibited (S. mutans [2]; over the 9-h growth assay): 1 µM |
